Results from PubChem BioAssay AID1259407 (Chemical Carcinogenesis Research Information System (CCRIS), 2018).
Entries after “also recorded” stand apart in the source; their conditions may differ. Activity calls are given as the source filed them. No rule for the calls is given here.

Test system: CCRIS mutagenicity, Ames/micronucleus/aberration tests
Assay: CCRIS mutagenicity studies

With `Nc1ccc([N+](=O)[O-])cc1N` the mutagenic call (End Point: IN VITRO CHROMOSOMAL ABERRATIONS, Test System: CHL CELLS, Metabolic Activation: RAT, LIVER, S-9, SODIUM PHENOBARBITAL AND 5,6-BENZOFLAVONE) was “inactive; negative; authors report equivocal results for structural changes at 0.75 , 1.5”, the mutagenic call (Test System: AMES SALMONELLA TYPHIMURIUM, Strain/Indicator: TA98(NR), Metabolic Activation: NONE, Method: PREINCUBATION) was “active; positive” and the mutagenic call (Test System: AMES SALMONELLA TYPHIMURIUM, Strain/Indicator: TA98(NR), Metabolic Activation: RAT, LIVER, S-9, AROCLOR 1254, Method: PREINCUBATION) was “active; positive”. The mutagenic call (Test System: AMES SALMONELLA TYPHIMURIUM, Strain/Indicator: TA98, Metabolic Activation: NONE) was “active; positive”, the mutagenic call (Test System: AMES SALMONELLA TYPHIMURIUM, Strain/Indicator: TA98, Metabolic Activation: NONE, Method: PREINCUBATION) was “active; positive” and the mutagenic call (Test System: AMES SALMONELLA TYPHIMURIUM, Strain/Indicator: TA98, Metabolic Activation: NONE, Method: STANDARD PLATE) was “active; positive”. The mutagenic call (Test System: AMES SALMONELLA TYPHIMURIUM, Strain/Indicator: TA98, Metabolic Activation: PEA APICAL BUD S-9, Method: PREINCUBATION) was “active; positive”, the mutagenic call (Test System: AMES SALMONELLA TYPHIMURIUM, Strain/Indicator: TA98, Metabolic Activation: PEA APICAL BUD S-9, Method: STANDARD PLATE) was “active; positive” and the mutagenic call (Test System: AMES SALMONELLA TYPHIMURIUM, Strain/Indicator: TA98, Metabolic Activation: RAT, LIVER, S-9, AROCLOR 1254) was “active; positive”. The mutagenic call (Test System: AMES SALMONELLA TYPHIMURIUM, Strain/Indicator: TA98, Metabolic Activation: RAT, LIVER, S-9, AROCLOR 1254, Method: PREINCUBATION) was “active; positive”, the mutagenic call (Test System: AMES SALMONELLA TYPHIMURIUM, Strain/Indicator: TA98, Metabolic Activation: RAT, LIVER, S-9, AROCLOR 1254, Method: STANDARD PLATE) was “active; positive” and the mutagenic call (Test System: AMES SALMONELLA TYPHIMURIUM, Strain/Indicator: TA98, Metabolic Activation: RAT, LIVER, S-9, PHENOBARBITAL AND BETA-NAPHTHOFLAVONE, Method: PREINCUBATION) was “active; positive”. The mutagenic call (Test System: AMES SALMONELLA TYPHIMURIUM, Strain/Indicator: TA98, Metabolic Activation: RAT, LIVER, S-9, SODIUM PHENOBARBITAL AND 5,6-BENZOFLAVONE, Method: PREINCUBATION) was “active; positive”, the mutagenic call (Test System: AMES SALMONELLA TYPHIMURIUM, Strain/Indicator: TA98, Metabolic Activation: ZEA MAYS, S-2, Method: STANDARD PLATE) was “active; positive” and the mutagenic call (Test System: AMES SALMONELLA TYPHIMURIUM, Strain/Indicator: TA100(NR), Metabolic Activation: NONE, Method: PREINCUBATION) was “active; positive”. The mutagenic call (Test System: AMES SALMONELLA TYPHIMURIUM, Strain/Indicator: TA100(NR), Metabolic Activation: RAT, LIVER, S-9, AROCLOR 1254, Method: PREINCUBATION) was “active; positive”, the mutagenic call (Test System: AMES SALMONELLA TYPHIMURIUM, Strain/Indicator: TA100, Metabolic Activation: NONE, Method: PREINCUBATION) was “active; positive” and the mutagenic call (Test System: AMES SALMONELLA TYPHIMURIUM, Strain/Indicator: TA100, Metabolic Activation: NONE, Method: STANDARD PLATE) was “active; positive”. For the same compound, the mutagenic call (Test System: AMES SALMONELLA TYPHIMURIUM, Strain/Indicator: TA100, Metabolic Activation: PEA APICAL BUD S-9, Method: PREINCUBATION) was “active; positive”, the mutagenic call (Test System: AMES SALMONELLA TYPHIMURIUM, Strain/Indicator: TA100, Metabolic Activation: PEA APICAL BUD S-9, Method: STANDARD PLATE) was “active; positive” and the mutagenic call (Test System: AMES SALMONELLA TYPHIMURIUM, Strain/Indicator: TA100, Metabolic Activation: RAT, LIVER, S-9, AROCLOR 1254, Method: PREINCUBATION) was “active; positive”. For the same compound, the mutagenic call (Test System: AMES SALMONELLA TYPHIMURIUM, Strain/Indicator: TA100, Metabolic Activation: RAT, LIVER, S-9, AROCLOR 1254, Method: STANDARD PLATE) was “active; positive”, the mutagenic call (Test System: AMES SALMONELLA TYPHIMURIUM, Strain/Indicator: TA100, Metabolic Activation: RAT, LIVER, S-9, PHENOBARBITAL AND BETA-NAPHTHOFLAVONE, Method: PREINCUBATION) was “active; positive” and the mutagenic call (Test System: AMES SALMONELLA TYPHIMURIUM, Strain/Indicator: TA100, Metabolic Activation: ZEA MAYS, S-2, Method: STANDARD PLATE) was “active; positive”. The mutagenic call (Test System: AMES SALMONELLA TYPHIMURIUM, Strain/Indicator: TA104, Metabolic Activation: NONE, Method: STANDARD PLATE) was “active; positive”, the mutagenic call (Test System: AMES SALMONELLA TYPHIMURIUM, Strain/Indicator: TA4001, Metabolic Activation: NONE, Method: STANDARD PLATE) was “inactive; negative” and the mutagenic call (Test System: AMES SALMONELLA TYPHIMURIUM, Strain/Indicator: TA4006, Metabolic Activation: NONE, Method: STANDARD PLATE) was “active; positive”. The mutagenic call (Test System: AMES SALMONELLA TYPHIMURIUM, Strain/Indicator: TA7001, Metabolic Activation: NONE, Method: STANDARD PLATE) was “inactive; negative”, the mutagenic call (Test System: AMES SALMONELLA TYPHIMURIUM, Strain/Indicator: TA7001, Metabolic Activation: RAT LIVER S-9, AROCLOR 1254, Method: STANDARD PLATE) was “inactive; negative” and the mutagenic call (Test System: AMES SALMONELLA TYPHIMURIUM, Strain/Indicator: TA7002, Metabolic Activation: NONE, Method: STANDARD PLATE) was “active; positive”. The mutagenic call (Test System: AMES SALMONELLA TYPHIMURIUM, Strain/Indicator: TA7002, Metabolic Activation: RAT LIVER S-9, AROCLOR 1254, Method: STANDARD PLATE) was “active; positive”, the mutagenic call (Test System: AMES SALMONELLA TYPHIMURIUM, Strain/Indicator: TA7003, Metabolic Activation: NONE, Method: STANDARD PLATE) was “inactive; negative” and the mutagenic call (Test System: AMES SALMONELLA TYPHIMURIUM, Strain/Indicator: TA7004, Metabolic Activation: NONE, Method: STANDARD PLATE) was “active; positive”. The mutagenic call (Test System: AMES SALMONELLA TYPHIMURIUM, Strain/Indicator: TA7004, Metabolic Activation: RAT LIVER S-9, AROCLOR 1254, Method: STANDARD PLATE) was “active; positive”, the mutagenic call (Test System: AMES SALMONELLA TYPHIMURIUM, Strain/Indicator: TA7005, Metabolic Activation: NONE, Method: STANDARD PLATE) was “active; positive” and the mutagenic call (Test System: AMES SALMONELLA TYPHIMURIUM, Strain/Indicator: TA7005, Metabolic Activation: RAT LIVER S-9, AROCLOR 1254, Method: STANDARD PLATE) was “active; positive”. The mutagenic call (Test System: Ames Salmonella typhimurium, Strain/Indicator: TA97a, Metabolic Activation: None, Method: Preincubation) was “active; positive (decrease in mutagenicity when 0.99-15.90 mg/plate of chloroform extrac”, the mutagenic call (Test System: Ames Salmonella typhimurium, Strain/Indicator: TA98, Metabolic Activation: None, Method: Preincubation) was “active; positive (decrease in mutagenicity when 0.99-15.90 mg/plate of chloroform extrac; also recorded: active; positive (dose related decrease in mutagenicity when 1.82-21.90 mg/plate of meth” and the mutagenic call (Test System: CHINESE HAMSTER OVARY, Strain/Indicator: CHO-K1-BH4 (HGPRT)/6-THIOGUANINE, Metabolic Activation: NONE) was “inactive; negative”. The mutagenic call (Test System: CHINESE HAMSTER OVARY, Strain/Indicator: CHO-K1-BH4 (HGPRT)/6-THIOGUANINE, Metabolic Activation: S-9) was “inactive; negative”, the mutagenic call (Test System: E. COLI, Strain/Indicator: WP2 UVRA, Metabolic Activation: HAMSTER, LIVER, S-9, AROCLOR 1254, Method: STANDARD PLATE) was “inactive; negative” and the mutagenic call (Test System: E. COLI, Strain/Indicator: WP2 UVRA, Metabolic Activation: HAMSTER, LIVER, S-9, Method: STANDARD PLATE) was “inactive; negative”. For the same compound, the mutagenic call (Test System: E. COLI, Strain/Indicator: WP2 UVRA, Metabolic Activation: MOUSE, LIVER, S-9, AROCLOR 1254, Method: STANDARD PLATE) was “inactive; negative”, the mutagenic call (Test System: E. COLI, Strain/Indicator: WP2 UVRA, Metabolic Activation: MOUSE, LIVER, S-9, Method: STANDARD PLATE) was “inactive; negative” and the mutagenic call (Test System: E. COLI, Strain/Indicator: WP2 UVRA, Metabolic Activation: NONE, Method: STANDARD PLATE) was “inactive; negative”. The mutagenic call (Test System: E. COLI, Strain/Indicator: WP2 UVRA, Metabolic Activation: RAT, LIVER, S-9, AROCLOR 1254, Method: STANDARD PLATE) was “inactive; negative”, the mutagenic call (Test System: E. COLI, Strain/Indicator: WP2 UVRA, Metabolic Activation: RAT, LIVER, S-9, Method: STANDARD PLATE) was “inactive; negative” and the mutagenic call (Test System: MOUSE LYMPHOMA, Strain/Indicator: L5178Y (TK+/TK-), Metabolic Activation: NONE, Method: SUSPENSION/PLATE) was “active; positive”. The mutagenic call (Test System: MOUSE LYMPHOMA, Strain/Indicator: L5178Y (TK+/TK-), Metabolic Activation: RAT, LIVER, S-9, AROCLOR 1254, Method: SUSPENSION/PLATE) was “active; positive” and the mutagenic call (Test System: UDS RAT HEPATOCYTES, Strain/Indicator: THY INCORP, Metabolic Activation: NONE, Method: AUTORADIOGRAPHY (SERUM-FREE MEDIA)) was “active; positive”.
